# Positions count from the first letter of the chain named.
# How the values were obtained:
# Assay in all cases: Whole-cell patch-clamp, positive allosteric modulation of glycine (EC20) induced currents
# Type in all cases: cell-based
# [1] = biological target: T1, human α1-GlyR (WT) expressed in HEK 293 cells (Homo sapiens, UniProt P23415); set-up: expressed in transfected cells; host or cells: HEK 293 (transient, electroporation; pCIS2 vector; co-transfected EGFP as a separate marker)
# T1 sequence (P23415 29-457): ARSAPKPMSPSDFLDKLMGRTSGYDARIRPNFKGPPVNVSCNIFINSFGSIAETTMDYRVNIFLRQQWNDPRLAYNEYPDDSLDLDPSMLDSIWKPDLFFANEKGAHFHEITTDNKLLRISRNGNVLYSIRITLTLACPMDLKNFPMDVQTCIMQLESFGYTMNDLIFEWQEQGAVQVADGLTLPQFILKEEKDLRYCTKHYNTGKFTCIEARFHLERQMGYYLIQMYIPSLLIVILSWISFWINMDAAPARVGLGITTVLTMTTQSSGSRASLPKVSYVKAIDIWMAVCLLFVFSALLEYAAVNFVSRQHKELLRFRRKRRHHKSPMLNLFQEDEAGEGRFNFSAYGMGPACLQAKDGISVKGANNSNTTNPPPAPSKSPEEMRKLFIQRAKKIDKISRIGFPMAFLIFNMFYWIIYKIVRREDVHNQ
# Experimental: (§1) Drug-containing vials were vigorously vortexed for 30min.
# (§2) A new cell was used for each protocol and at least four different experiments were performed for each condition. The concentration of the diluent EtOH corresponding to the highest drug concentration used was 17150 μM.
# (§3) Currents were filtered at 2 kHz.
# (§4) Currents were normalized to their own maximum response.
# [2] = biological target: T2, human α1R271Q-GlyR expressed in HEK 293 cells (Homo sapiens, UniProt P23415, R299Q); set-up: expressed in transfected cells; host or cells: HEK 293 (transient, electroporation; pcDNA1amp vector); conditions: R271Q
# T2 sequence (P23415 29-457 R299Q): T1 sequence (P23415 29-457) with R271Q
# Experimental: as §1, §2, §3, §4
# [3] = biological target: T3, human α1R271K-GlyR expressed in HEK 293 cells (Homo sapiens, UniProt P23415, R299K); set-up: expressed in transfected cells; host or cells: HEK 293 (transient, electroporation; pcDNA1amp vector); conditions: R271K
# T3 sequence (P23415 29-457 R299K): T1 sequence (P23415 29-457) with R271K
# Experimental: as §1, §2, §3, §4
# [4] = biological target: T4, human α1R271L-GlyR expressed in HEK 293 cells (Homo sapiens, UniProt P23415, R299L); set-up: expressed in transfected cells; host or cells: HEK 293 (transient, electroporation; pcDNA1amp vector); conditions: R271L
# T4 sequence (P23415 29-457 R299L): T1 sequence (P23415 29-457) with R271L
# Experimental: as §1, §2, §3, §4
substance,measurement,setting,value
"4-chloro-2,6-dimethylphenol [4-chloropropofol]",increased potency to positively modulate glycine induced chloride currents in comparison to propofol,"[1]; WT glycine receptors, propofol value from ref 21",more than 1000 fold
same,positive allosteric modulation nH ± SEM,"[1]; WT, EC20 glycine 20 μM",2.0 ± 2.8
same,EC50,"[1]; WT, co-applied with sub-saturating (EC20) glycine 20 μM, read-out: positive allosteric modulation EC50 ± SEM",0.08 ± 0.02 nM
same,"positive allosteric modulation, potentiation [% of peak current amplitude] ± SEM","[1]; WT, maximal positive allosteric modulation, EC20 glycine 20 μM",269 ± 88%
same,positive allosteric modulation nH ± SEM,[2]; EC20 glycine 10 mM,0.9 ± 1.3
same,EC50,"[2]; co-applied with sub-saturating (EC20) glycine 10 mM, read-out: positive allosteric modulation EC50 ± SEM",1300 ± 600 nM
same,"positive allosteric modulation, potentiation [% of peak current amplitude] ± SEM","[2]; maximal positive allosteric modulation, EC20 glycine 10 mM",260 ± 52%
same,positive allosteric modulation nH ± SEM,[3]; EC20 glycine 100 μM,0.3 ± 0.1
same,EC50,"[3]; co-applied with sub-saturating (EC20) glycine 100 μM, read-out: positive allosteric modulation EC50 ± SEM",6000 ± 2300 nM
same,"positive allosteric modulation, potentiation [% of peak current amplitude] ± SEM","[3]; maximal positive allosteric modulation, EC20 glycine 100 μM",231 ± 174%
same,positive allosteric modulation nH ± SEM,[4]; EC20 glycine 30 mM,0.7 ± 0.3
same,EC50,"[4]; co-applied with sub-saturating (EC20) glycine 30 mM, read-out: positive allosteric modulation EC50 ± SEM",100 ± 200 nM
same,"positive allosteric modulation, potentiation [% of peak current amplitude] ± SEM","[4]; maximal positive allosteric modulation, EC20 glycine 30 mM",153 ± 46%
